Consider 15 compounds from PubChem BioAssay AID248 (DTP/NCI, 2004).

Toxic doses and inconclusive results are not listed.

The assay relates to L1210 leukemia ip in BDF1 mice, survival T/C. The assay is described as follows: NCI In Vivo Anticancer Drug Screen. Data for tumor model L1210 Leukemia (intraperitoneal) in B6D2F1 (BDF1) mice. As to conditions: endpoint: mean survival time, higher = longer survival. The procedure, abridged:
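Tumor cells were implanted, animals were treated, and survival was followed. The result divides the treated measurement by the vehicle-control measurement.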

Where [1] appears, read: dose: 100.0 mg/kg/injection, schedule: Q04DX003 (ip), vehicle: Klucel (hydroxypropylcellulose) (HPC).
Setting [2] is: dose: 200.0 mg/kg/injection, schedule: Q04DX003 (ip), vehicle: Klucel (hydroxypropylcellulose) (HPC).
The mark [3] stands for this setting: dose: 400.0 mg/kg/injection, schedule: Q04DX003 (ip), vehicle: Klucel (hydroxypropylcellulose) (HPC).
Setting [4] is: dose: 100.0 mg/kg/injection, schedule: Q01DX009 (ip), vehicle: Klucel (hydroxypropylcellulose) (HPC).
Setting [5] is: dose: 200.0 mg/kg/injection, schedule: Q01DX009 (ip), vehicle: Klucel (hydroxypropylcellulose) (HPC).
Setting [6] is: dose: 400.0 mg/kg/injection, schedule: Q01DX009 (ip), vehicle: Klucel (hydroxypropylcellulose) (HPC).

In the case of `C[N+](C)(C)c1ncnc2nc[nH]c12`, the T/C is 112 % of control (dose: 22.5 mg/kg/injection, schedule: Q01DX Z (ip), vehicle: saline); 112 % of control (dose: 31.0 mg/kg/injection, schedule: Q01DX005 (ip), vehicle: saline); 120 % of control (dose: 31.0 mg/kg/injection, schedule: Q01DX009 (ip), vehicle: saline); 110 % of control (dose: 45.0 mg/kg/injection, schedule: Q01DX Z (ip), vehicle: saline); 110 % of control (dose: 53.0 mg/kg/injection, schedule: Q01DX Z (ip), vehicle: carboxymethylcellulose (CMC)); 110 % of control (dose: 62.0 mg/kg/injection, schedule: Q01DX005 (ip), vehicle: saline). The T/C by setting is: (dose: 62.0 mg/kg/injection, schedule: Q01DX009 (oral), vehicle: saline) 109 % of control; (dose: 62.0 mg/kg/injection, schedule: Q01DX009 (sc), vehicle: saline) 109 % of control; (dose: 80.0 mg/kg/injection, schedule: Q01DX Z (ip), vehicle: carboxymethylcellulose (CMC)) 118 % of control; (dose: 100.0 mg/kg/injection, schedule: Q## X008 (ip), vehicle: saline) 110 % of control; (dose: 100.0 mg/kg/injection, schedule: Q## X024 (ip), vehicle: saline) 115 % of control; (dose: 120.0 mg/kg/injection, schedule: Q01DX Z (ip), vehicle: carboxymethylcellulose (CMC)) 118 % of control. The T/C is, setting by setting: (dose: 125.0 mg/kg/injection, schedule: Q01DX001 (ip), vehicle: saline) 96 % of control; (dose: 125.0 mg/kg/injection, schedule: Q01DX001 (oral), vehicle: saline) 116 % of control; (dose: 125.0 mg/kg/injection, schedule: Q01DX001 (sc), vehicle: saline) 106 % of control; (dose: 125.0 mg/kg/injection, schedule: Q01DX005 (ip), vehicle: saline) 124 % of control; (dose: 125.0 mg/kg/injection, schedule: Q01DX009 (sc), vehicle: saline) 118 % of control; (dose: 125.0 mg/kg/injection, schedule: Q## X003 (ip), vehicle: saline) 108 % of control. In addition, the T/C is 162 % of control (dose: 180.0 mg/kg/injection, schedule: Q01DX Z (ip), vehicle: carboxymethylcellulose (CMC)); 109 % of control (dose: 200.0 mg/kg/injection, schedule: Q## X008 (ip), vehicle: saline); 107 % of control (dose: 250.0 mg/kg/injection, schedule: Q01DX001 (ip), vehicle: saline); 110 % of control (dose: 250.0 mg/kg/injection, schedule: Q01DX001 (oral), vehicle: saline); 109 % of control (dose: 250.0 mg/kg/injection, schedule: Q01DX001 (sc), vehicle: saline); 123 % of control (dose: 250.0 mg/kg/injection, schedule: Q01DX009 (sc), vehicle: saline). For the same compound, the T/C is, setting by setting: (dose: 250.0 mg/kg/injection, schedule: Q## X003 (ip), vehicle: saline) 119 % of control; (dose: 270.0 mg/kg/injection, schedule: Q01DX015 (ip), vehicle: saline) 152 % of control; (dose: 400.0 mg/kg/injection, schedule: Q## X008 (ip), vehicle: saline) 120 % of control; (dose: 500.0 mg/kg/injection, schedule: Q01DX001 (oral), vehicle: saline) 112 % of control; (dose: 800.0 mg/kg/injection, schedule: Q## X024 (ip), vehicle: saline) 122 % of control; (dose: 1000.0 mg/kg/injection, schedule: Q01DX001 (oral), vehicle: saline) 124 % of control.

For the compound `CCCCCCCCCCCCOc1ccc2ccccc2c1`, the T/C by setting is: (dose: 100.0 mg/kg/injection, schedule: Q04DX003 (ip), vehicle: saline with Tween-80) 97 % of control; (dose: 200.0 mg/kg/injection, schedule: Q04DX003 (ip), vehicle: saline with Tween-80) 95 % of control; (dose: 400.0 mg/kg/injection, schedule: Q04DX003 (ip), vehicle: saline with Tween-80) 108 % of control.

In the case of `CC(C)c1ccccc1SCC1=NCCN1`, the T/C is, setting by setting: (dose: 10.0 mg/kg/injection, schedule: Q04DX003 (ip), vehicle: Klucel (hydroxypropylcellulose) (HPC)) 103 % of control; (dose: 20.0 mg/kg/injection, schedule: Q04DX003 (ip), vehicle: Klucel (hydroxypropylcellulose) (HPC)) 115 % of control.

As to `CCN(CC)Cc1cc(Nc2cc(C)nc3ccc(N(C)C)cc23)ccc1O`, the T/C was 104 % of control (dose: 12.5 mg/kg/injection, schedule: Q01DX009 (ip), vehicle: saline); 98 % of control (dose: 25.0 mg/kg/injection, schedule: Q01DX009 (ip), vehicle: saline); 100 % of control (dose: 50.0 mg/kg/injection, schedule: Q01DX009 (ip), vehicle: saline).

For `CC1(CCCC2C(=O)N(c3ccccc3)N(c3ccccc3)C2=O)OCCO1`, the T/C under setting [1] was 104 % of control, the T/C under setting [2] was 98 % of control and the T/C under setting [3] is 94 % of control.

As to `COc1ccccc1/C=N/NC(=O)CCCCCCCCC(=O)N/N=C/c1ccccc1OC`, the T/C under setting [4] was 95 % of control, the T/C under setting [5] was 88 % of control and the T/C under setting [6] was 88 % of control.

For the compound `COC(=O)c1ccccc1NC(=O)Nc1ccccc1`, the T/C was 108 % of control under setting [4]; 101 % of control under setting [1]; 101 % of control under setting [5]; 101 % of control under setting [2]; 100 % of control under setting [6]; 98 % of control under setting [3].

With `CSc1cccc[n+]1C`, where the note is “dose: 75.0 mg/kg/injection, schedule: Q01DX001 (ip), vehicle: saline”, the T/C is 104 % of control.

With `COc1ccccc1NC(=O)c1ccccc1F`, the T/C by setting is: under setting [4], 95 % of control; under setting [5], 95 % of control; under setting [6], 101 % of control.

Regarding `Cc1ccc(NC(=O)c2ccc(Cl)cc2)cc1Cl`, the T/C was 105 % of control under setting [4]; 94 % of control under setting [1]; 98 % of control under setting [5]; 94 % of control under setting [2]; 92 % of control under setting [6]; 104 % of control under setting [3].

As to `C=Cc1ccccc1` (tested in a mixture with another compound), the T/C is, setting by setting: (dose: 75.0 mg/kg/injection, schedule: Q01DX001 (ip), vehicle: other) 101 % of control; (dose: 150.0 mg/kg/injection, schedule: Q01DX001 (ip), vehicle: other) 97 % of control; (dose: 300.0 mg/kg/injection, schedule: Q01DX001 (ip), vehicle: other) 87 % of control.

As to `Cc1ccc(NC(=O)c2ccc(C)c(NC(=O)C(F)(F)F)c2)c(C)c1`, the T/C was 97 % of control (dose: 50.0 mg/kg/injection, schedule: Q04DX003 (ip), vehicle: Klucel (hydroxypropylcellulose) (HPC)); 100 % of control under setting [1]; 95 % of control under setting [2].

With `CN(C)c1ccc(C(/C=N\O)(c2ccc(N(C)C)cc2)c2ccc(N(C)C)cc2)cc1`, the T/C under setting [4] is 101 % of control; the T/C under setting [1] was 90 % of control; the T/C under setting [5] was 96 % of control; the T/C under setting [2] was 95 % of control; the T/C under setting [6] was 101 % of control; the T/C under setting [3] is 93 % of control.

Regarding `CC(=O)Nc1ncnc2c1c(C(N)=O)cn2C1OC(COC(C)=O)C(OC(C)=O)C1OC(C)=O` (stereo unspecified), the T/C (dose: 100.0 mg/kg/injection, schedule: Q01DX001 (ip), vehicle: water) is 102 % of control.

With `CCCCCCC(O)CCCCCCCCCCCO` (stereo unspecified), the T/C runs as follows: under setting [4], 108 % of control; under setting [5], 97 % of control; under setting [6], 103 % of control.
